Reference: ChEMBL document CHEMBL3860037, “Design, synthesis and biological characterization of a new class of osteogenic (1H)-quinolone derivatives” (Eur J Med Chem, 2016)
Blank lines part the entries; values can stand above or below the molecule they belong to. Activity calls are given as the source filed them. The calls are words filed in the database; no cut-off is given here.

Experiments:
[1] = biological target: Protein smoothened (Mus musculus) (UniProt P56726); assay: Activity at Smo in mouse C3H10T1/2 cells assessed as induction of cell differentiation into osteoblast at 10 uM incubated for 6 days by alkaline phosphatase assay relative to GSA-10; assay type: cell-based; conditions: C3H 10T1/2
Protein smoothened (Mus musculus), sequence (P56726 whole entry): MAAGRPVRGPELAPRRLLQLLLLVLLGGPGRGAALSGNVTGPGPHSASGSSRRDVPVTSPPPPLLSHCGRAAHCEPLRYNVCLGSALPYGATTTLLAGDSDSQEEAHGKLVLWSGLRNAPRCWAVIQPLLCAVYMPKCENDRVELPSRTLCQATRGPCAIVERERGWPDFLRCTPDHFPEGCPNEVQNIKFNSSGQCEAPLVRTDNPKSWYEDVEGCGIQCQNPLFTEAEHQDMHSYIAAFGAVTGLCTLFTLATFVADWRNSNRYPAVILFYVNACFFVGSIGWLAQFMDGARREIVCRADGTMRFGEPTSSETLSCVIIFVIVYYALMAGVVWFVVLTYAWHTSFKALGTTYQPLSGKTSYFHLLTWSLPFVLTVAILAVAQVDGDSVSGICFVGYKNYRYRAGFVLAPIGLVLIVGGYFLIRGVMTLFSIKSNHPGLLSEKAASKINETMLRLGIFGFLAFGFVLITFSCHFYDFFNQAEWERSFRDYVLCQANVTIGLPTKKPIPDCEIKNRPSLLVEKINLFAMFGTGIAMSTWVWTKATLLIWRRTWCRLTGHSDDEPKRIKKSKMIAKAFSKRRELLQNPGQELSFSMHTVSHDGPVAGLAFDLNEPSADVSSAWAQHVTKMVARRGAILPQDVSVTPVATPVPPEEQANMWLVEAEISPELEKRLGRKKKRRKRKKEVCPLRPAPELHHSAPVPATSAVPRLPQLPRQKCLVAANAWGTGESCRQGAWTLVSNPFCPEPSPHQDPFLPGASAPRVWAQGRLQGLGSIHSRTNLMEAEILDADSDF

[2] = biological target: T1, Coelenterazine h 2-monooxygenase (Renilla reniformis) (UniProt P27652); assay: Induction of Renilla reniformis luciferase activity at 10 uM relative to control
T1 sequence (whole entry): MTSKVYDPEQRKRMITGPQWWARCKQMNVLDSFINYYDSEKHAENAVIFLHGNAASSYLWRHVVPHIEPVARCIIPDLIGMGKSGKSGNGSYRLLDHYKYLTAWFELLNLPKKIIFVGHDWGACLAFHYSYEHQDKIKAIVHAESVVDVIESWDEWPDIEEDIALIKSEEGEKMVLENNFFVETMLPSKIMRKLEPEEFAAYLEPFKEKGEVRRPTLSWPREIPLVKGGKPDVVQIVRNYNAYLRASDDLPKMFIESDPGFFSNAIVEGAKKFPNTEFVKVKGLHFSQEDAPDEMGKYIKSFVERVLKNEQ

[3] = biological target: Protein smoothened (Rattus norvegicus) (UniProt P97698); assay: Agonist activity at Smo in cerebellar granule cell precursors isolated from rat at postnatal day 8 assessed as stimulation of proliferation by [3H]-thymidine incorporation assay
Protein smoothened (Rattus norvegicus), sequence (P97698 whole entry): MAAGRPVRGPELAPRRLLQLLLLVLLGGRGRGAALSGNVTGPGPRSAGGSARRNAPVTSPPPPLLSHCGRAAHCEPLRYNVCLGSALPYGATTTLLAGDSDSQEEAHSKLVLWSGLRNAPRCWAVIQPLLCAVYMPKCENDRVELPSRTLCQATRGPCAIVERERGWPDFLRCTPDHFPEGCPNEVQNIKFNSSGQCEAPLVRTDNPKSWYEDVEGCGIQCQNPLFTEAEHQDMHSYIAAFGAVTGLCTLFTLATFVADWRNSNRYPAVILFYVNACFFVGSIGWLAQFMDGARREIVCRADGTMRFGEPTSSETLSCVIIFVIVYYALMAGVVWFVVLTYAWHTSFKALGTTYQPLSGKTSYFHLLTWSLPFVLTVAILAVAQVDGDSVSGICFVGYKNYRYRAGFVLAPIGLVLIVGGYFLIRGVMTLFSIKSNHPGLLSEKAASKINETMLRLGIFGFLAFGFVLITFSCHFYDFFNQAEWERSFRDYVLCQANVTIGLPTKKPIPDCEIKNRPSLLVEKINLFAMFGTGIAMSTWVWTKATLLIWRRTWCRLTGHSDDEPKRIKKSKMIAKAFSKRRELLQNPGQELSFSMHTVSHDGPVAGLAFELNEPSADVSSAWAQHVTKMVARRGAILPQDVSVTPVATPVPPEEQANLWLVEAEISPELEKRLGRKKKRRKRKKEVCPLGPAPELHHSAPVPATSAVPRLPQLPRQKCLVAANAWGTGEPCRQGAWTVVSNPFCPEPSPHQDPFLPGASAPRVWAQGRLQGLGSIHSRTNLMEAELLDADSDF

[4] = biological target: Protein smoothened (Mus musculus) (UniProt P56726); assay: Agonist activity at Smo in mouse C3H10T1/2 cells assessed as effect on Smo expression at 1 uM after 48 hrs by RT-PCR method relative to vehicle-treated control; assay type: cell-based; conditions: C3H 10T1/2
[5] = biological target: Protein smoothened (Mus musculus, UniProt P56726); assay: Agonist activity at Smo in mouse NIH/3T3 cells transfected with Gli-dependent firefly luciferase reporter assessed as stimulation of Gli transcription factor; assay type: cell-based
Protein smoothened, sequence (P56726 whole entry): as the sequence (P56726 whole entry) above

[6] = biological target: Protein smoothened (Mus musculus) (UniProt P56726); assay: Induction of Smo translocation to primary cilium in mouse NIH/3T3 cells at 1 uM after overnight incubation by DAPI staining-based immunofluorescence assay relative to control; assay type: cell-based
[7] = biological target: Protein smoothened (Mus musculus) (UniProt P56726); assay: Agonist activity at Smo in mouse C3H10T1/2 cells assessed as effect on Gli2 expression at 1 uM after 48 hrs by RT-PCR method relative to vehicle-treated control; assay type: cell-based; conditions: C3H 10T1/2
[8] = biological target: Protein smoothened (Mus musculus) (UniProt P56726); assay: Agonist activity at Smo in mouse NIH/3T3 cells transfected with Gli-dependent firefly luciferase reporter assessed as stimulation of Gli transcription factor incubated for 40 hrs; assay type: cell-based
[9] = biological target: Protein smoothened (Mus musculus) (UniProt P56726); assay: Agonist activity at Smo in mouse C3H10T1/2 cells assessed as induction of cell differentiation into osteoblast incubated for 6 days by alkaline phosphatase assay; assay type: cell-based; conditions: C3H 10T1/2
[10] = biological target: Protein smoothened (Mus musculus) (UniProt P56726); assay: Agonist activity at Smo in mouse C3H10T1/2 cells assessed as induction of cell differentiation into osteoblast at 10 uM incubated for 6 days by alkaline phosphatase assay relative to GSA-10; assay type: cell-based; conditions: C3H 10T1/2
[11] = biological target: Protein smoothened (Mus musculus) (UniProt P56726); assay: Agonist activity at Smo in mouse C3H10T1/2 cells assessed as effect on Gli3 expression at 1 uM after 48 hrs by RT-PCR method relative to vehicle-treated control; assay type: cell-based; conditions: C3H 10T1/2
[12] = biological target: Protein smoothened (Mus musculus) (UniProt P56726); assay: Agonist activity at Smo in mouse C3H10T1/2 cells assessed as effect on Ptc1 expression at 1 uM after 48 hrs by RT-PCR method relative to vehicle-treated control; assay type: cell-based; conditions: C3H 10T1/2
[13] = biological target: Protein smoothened (Mus musculus) (UniProt P56726); assay: Agonist activity at Smo in mouse C3H10T1/2 cells assessed as effect on Gli1 expression at 1 uM after 48 hrs by RT-PCR method relative to vehicle-treated control; assay type: cell-based; conditions: C3H 10T1/2
[14] = biological target: Protein smoothened (Mus musculus) (UniProt P56726); assay: Activity at Smo in mouse C3H10T1/2 cells assessed as induction of cell differentiation into osteoblast at 0.3 uM in presence of adenylate cyclase activator forskolin incubated for 6 days by alkaline phosphatase assay; assay type: cell-based; conditions: C3H 10T1/2
[15] = biological target: Protein smoothened (Mus musculus) (UniProt P56726); assay: Antagonist activity at Smo in mouse NIH/3T3 cells transfected with Gli-dependent firefly luciferase reporter assessed as inhibition of SAG-induced maximal stimulation of Gli transcription factor at 1 uM incubated for 40 hrs relative to control; assay type: cell-based
[16] = biological target: Protein smoothened (Mus musculus) (UniProt P56726); assay: Agonist activity at Smo in mouse C3H10T1/2 cells assessed as effect on Gli1 expression at 10 uM after 48 hrs by RT-PCR method relative to vehicle-treated control; assay type: cell-based; conditions: C3H 10T1/2
[17] = biological target: Protein smoothened (Mus musculus) (UniProt P56726); assay: Agonist activity at Smo in mouse C3H10T1/2 cells assessed as effect on Gli2 expression at 10 uM after 48 hrs by RT-PCR method relative to vehicle-treated control; assay type: cell-based; conditions: C3H 10T1/2
[18] = biological target: Protein smoothened (Mus musculus) (UniProt P56726); assay: Activity at Smo in mouse C3H10T1/2 cells assessed as induction of cell differentiation into osteoblast at 0.3 uM in presence of phosphodiesterase inhibitor IBMX incubated for 6 days by alkaline phosphatase assay; assay type: cell-based; conditions: C3H 10T1/2
[19] = biological target: Protein smoothened (Mus musculus) (UniProt P56726); assay: Agonist activity at Smo in mouse C3H10T1/2 cells assessed as effect on Gli3 expression at 10 uM after 48 hrs by RT-PCR method relative to vehicle-treated control; assay type: cell-based; conditions: C3H 10T1/2
[20] = biological target: Protein smoothened (Mus musculus) (UniProt P56726); assay: Activity at Smo in mouse C3H10T1/2 cells assessed as induction of cell differentiation into osteoblast incubated for 6 days by alkaline phosphatase assay; assay type: cell-based; conditions: C3H 10T1/2
[21] = biological target: Protein smoothened (Mus musculus) (UniProt P56726); assay: Agonist activity at Smo in mouse C3H10T1/2 cells assessed as effect on Ptc1 expression at 10 uM after 48 hrs by RT-PCR method relative to vehicle-treated control; assay type: cell-based; conditions: C3H 10T1/2
[22] = biological target: Protein smoothened (Mus musculus) (UniProt P56726); assay: Potency index, ratio of GSA-10 EC50 to compound EC50 for activity at Smo in mouse C3H10T1/2 cells assessed as induction of cell differentiation into osteoblast; assay type: cell-based; conditions: C3H 10T1/2
[23] = biological target: Protein smoothened (Mus musculus) (UniProt P56726); assay: Agonist activity at Smo in mouse C3H10T1/2 cells assessed as effect on Smo expression at 10 uM after 48 hrs by RT-PCR method relative to vehicle-treated control; assay type: cell-based; conditions: C3H 10T1/2
[24] = biological target: Protein smoothened (Mus musculus) (UniProt P56726); assay: Activity at Smo in mouse C3H10T1/2 cells assessed as induction of cell differentiation into osteoblast at 1 uM in presence of phosphodiesterase inhibitor IBMX incubated for 6 days by alkaline phosphatase assay; assay type: cell-based; conditions: C3H 10T1/2
[25] = biological target: Protein smoothened (Mus musculus) (UniProt P56726); assay: Activity at Smo in mouse C3H10T1/2 cells assessed as induction of cell differentiation into osteoblast at 1 uM in presence of adenylate cyclase activator forskolin incubated for 6 days by alkaline phosphatase assay; assay type: cell-based; conditions: C3H 10T1/2

max activation [1]: 22%
Compound: C=CCn1c(=O)c(C(=O)Nc2ccc(C(=O)OCCC)cc2)c(O)c2ccccc21

Activity [2]: < 20%
Activity [3]: Active
fold change (FC) [4]: 0.9
EC50 [5]: 30 nM
Activity [6]: > 60%
fold change (FC) [7]: 1.24
Activity [8]: Active
Activity [9]: Dose-dependent effect
max activation [10]: 75%
fold change (FC) [11]: 0.72
fold change (FC) [12]: 5.32
fold change (FC) [13]: 7.83
Compound: CN[C@H]1CC[C@H](N(Cc2cccc(-c3ccncc3)c2)C(=O)c2sc3ccccc3c2Cl)CC1

Compound: CCOC(=O)c1ccc(NC(=O)c2c(O)c3ccccc3n(Cc3ccccc3)c2=O)cc1
max activation [1]: 4%

Activity [2]: < 20%
Activity [14]: Active
inhibition [15]: 54%
fold change (FC) [16]: 0.04
fold change (FC) [17]: 1.49
Activity [18]: Active
fold change (FC) [19]: 0.86
Activity [20]: Dose-dependent effect
fold change (FC) [21]: 0.27
Ratio EC50 [22]: 3
max activation [1]: 138%
fold change (FC) [23]: 0.81
Compound: CCCOC(=O)c1ccc(NC(=O)c2c(O)c3cc(OC)c(OC)cc3n(CCC)c2=O)cc1

Compound: CCCCCCn1c(=O)c(C(=O)Nc2ccc(OCC)cc2)c(O)c2ccccc21
max activation [1]: 1%

Compound: CCCCCn1c(=O)c(C(=O)Nc2ccc(C(=O)OCCCC)cc2)c(O)c2ccccc21
max activation [1]: 123%

Compound: CCCCCCn1c(=O)c(C(=O)Nc2ccc(C(=O)OCCC)cc2)c(O)c2ccccc21
Activity [2]: < 20%
inhibition [15]: 31%
fold change (FC) [16]: 0.05
fold change (FC) [17]: 1.35
fold change (FC) [19]: 0.85
Activity [20]: Dose-dependent effect
Activity [24]: Active
fold change (FC) [21]: 0.33
Activity [25]: Active
fold change (FC) [23]: 0.8

max activation [1]: 38%
Compound: CCCOC(=O)c1ccc(NC(=O)c2c(O)c3cccc4c3n(c2=O)CCC4)cc1

Compound: CCCCCCn1c(=O)c(C(=O)Nc2ccc(C(=O)OCc3ccccc3)cc2)c(O)c2ccccc21
max activation [1]: 47%

Compound: CCCCCCn1c(=O)c(C(=O)Nc2ccc(C(=O)OCC)cc2)c(O)c2ccccc21
max activation [1]: 62%

Compound: CCCCCCn1c(=O)c(C(=O)Nc2ccc(C(=O)OCCCC)cc2)c(O)c2ccccc21
max activation [1]: 88%

Compound: CCCCCCn1c(=O)c(C(=O)Nc2ccc(C(=O)OCCC)c(Cl)c2)c(O)c2ccccc21
max activation [1]: 11%

Compound: CCCCCCn1c(=O)c(C(=O)Nc2ccc(C(=O)OC(C)(C)C)cc2)c(O)c2ccccc21
max activation [1]: 69%

Compound: CCCCCCn1c(=O)c(C(=O)Nc2ccc(C(N)=O)cc2)c(O)c2ccccc21
max activation [1]: 1%

max activation [1]: 78%
Compound: c1ccc2c(Oc3nc(Nc4ccc(N5CCOCC5)cc4)c4ncn(C5CCCCC5)c4n3)cccc2c1

Compound: CCCCCn1c(=O)c(C(=O)Nc2ccc(C(=O)OCC)cc2)c(O)c2ccccc21
max activation [1]: 76%

Compound: CCCCCCn1c(=O)c(C(=O)Nc2ccc(C(=O)NCCC)cc2)c(O)c2ccccc21
max activation [1]: 1.6%

max activation [1]: 105%
Compound: CCCOC(=O)c1ccc(NC(=O)c2c(O)c3ccccc3n(CCC)c2=O)cc1

Compound: CCCCCCn1c(=O)c(C(=O)Nc2ccc(C(=O)OC(C)C)cc2)c(O)c2ccccc21
max activation [1]: 33%

Compound: CCCCCn1c(=O)c(C(=O)Nc2ccc([N+](=O)[O-])cc2)c(O)c2ccccc21
max activation [1]: 5%

max activation [1]: 85%
Compound: CCCOC(=O)c1ccc(NC(=O)c2c(O)c3cc(C)ccc3n(CCC)c2=O)cc1

max activation [1]: 41%
Compound: CCCOC(=O)c1ccc(NC(=O)c2c(O)c3cc(Cl)ccc3n(CCC)c2=O)cc1

Compound: CCCOC(=O)c1ccc(NC(=O)c2c(O)c3ccccc3n(Cc3ccccc3)c2=O)cc1
max activation [1]: 7%

Compound: CCCCCCn1c(=O)c(C(=O)Nc2cccc(C(=O)OCCC)c2)c(O)c2ccccc21
max activation [1]: 2%

Compound: CCCCCc1nc2ccccc2c(=O)n1NC(=O)c1c(O)c2ccccc2n(CC)c1=O
max activation [1]: 5%

Compound: CCCCCCn1c(=O)c(C(=O)Nc2ncc([N+](=O)[O-])s2)c(O)c2ccccc21
max activation [1]: 3%

Compound: CCCCn1c(=O)c(C(=O)Nc2ccc(C(=O)OCCC)cc2)c(O)c2ccccc21
max activation [1]: 135%

Compound: CCCCCCn1c(=O)c(C(=O)Nc2cc(C)cc(C(=O)OCCC)c2)c(O)c2ccccc21
max activation [1]: 3%

max activation [1]: 98%
Compound: CCCOC(=O)c1ccc(NC(=O)c2c(O)c3cc(F)ccc3n(CCC)c2=O)cc1

Compound: CCCCCCn1c(=O)c(C(=O)Nc2ccc(C(=O)NCCCC)cc2)c(O)c2ccccc21
max activation [1]: 92%

Compound: CCCCCn1c(=O)c(C(=O)Nc2ccc(C(=O)OCCC)cc2)c(O)c2ccccc21
max activation [1]: 138%

Compound: CCCCCn1c(=O)c(C(=O)Nc2ccc([N+](=O)[O-])cc2O)c(O)c2ccccc21
max activation [1]: 3%

Compound: CCCCCCn1c(=O)c(C(=O)Nc2ccc(C(=O)O)cc2)c(O)c2ccccc21
Activity [2]: < 20%
Activity [14]: Active
inhibition [15]: 26%
fold change (FC) [16]: 0.05
fold change (FC) [17]: 1.63
Activity [18]: Active
fold change (FC) [19]: 0.98
Activity [20]: Dose-dependent effect
fold change (FC) [21]: 0.26
Ratio EC50 [22]: 2
max activation [1]: 137%
fold change (FC) [23]: 0.92

max activation [1]: 1%
Compound: CCCOC(=O)c1ccc(NC(=O)c2c(O)c3ccccc3n(C)c2=O)cc1

Compound: CCCCCCn1c(=O)c(C(=O)Nc2cccc(C(=O)OCCC)c2C(F)(F)F)c(O)c2ccccc21
max activation [1]: 1.4%

Compound: CCCCCCn1c(=O)c(C(=O)Nc2nc(CC(=O)OCC)cs2)c(O)c2ccccc21
max activation [1]: 3%

Compound: CCCCCCn1c(=O)c(C(=O)Nc2cccc(C(=O)OC(C)(C)C)c2)c(O)c2ccccc21
max activation [1]: 1.3%

Compound: CCCCCCn1c(=O)c(C(=O)Nc2cccc(C(=O)OCC)c2)c(O)c2ccccc21
max activation [1]: 1.7%
